# Reference: PubChem BioAssay (NCI)
#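 Briefly, cells in 96-well plates were exposed to five compound concentrations for 48 h, and endpoints were estimated by linear interpolation. GI50: concentration for 50% inhibition of growth. TGI denotes the concentration required for complete inhibition of growth.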
# Columns and labels:
# Test in all cases: NCI anticancer screen, dose series, 48 h
# MDA-MB-231 breast = test system: MDA-MB-231 breast
# MDA-MB-435 = test system: MDA-MB-435
# RPMI-8226 leukemia = test system: RPMI-8226 leukemia
# SK-MEL-28 melanoma = test system: SK-MEL-28 melanoma
# CCRF-CEM leukemia = test system: CCRF-CEM leukemia
# IGROV1 ovarian = test system: IGROV1 ovarian
# U251 CNS = test system: U251 CNS
# SK-OV-3 ovarian = test system: SK-OV-3 ovarian
# T-47D breast = test system: T-47D breast
# SF-268 CNS = test system: SF-268 CNS
# RXF 393 renal = test system: RXF 393 renal
# HOP-92 NSCLC = test system: HOP-92 NSCLC
# OVCAR-3 ovarian = test system: OVCAR-3 ovarian
# NCI-H460 lung = test system: NCI-H460 lung
# MALME-3M melanoma = test system: MALME-3M melanoma
# A498 renal = test system: A498 renal
# K-562 leukemia = test system: K-562 leukemia
# OVCAR-5 ovarian = test system: OVCAR-5 ovarian
# UACC-62 melanoma = test system: UACC-62 melanoma
# DU-145 prostate = test system: DU-145 prostate
# HCT-15 colon = test system: HCT-15 colon
# HS 578T breast = test system: HS 578T breast
# EKVX NSCLC = test system: EKVX NSCLC
# PC-3 prostate = test system: PC-3 prostate
# A549 NSCLC = test system: A549 NSCLC
# TK-10 renal = test system: TK-10 renal
# ACHN renal = test system: ACHN renal
# HT29 colon = test system: HT29 colon
structure (smiles),measurement,setting,value
O=C(NN1C(=O)CSC12CCCCC2)c1[nH]c2ccc(F)cc2c1-c1ccccc1,TGI,MDA-MB-231 breast,45.8 µM
same,GI50,MDA-MB-435,21.8 µM
same,TGI,MDA-MB-435,52.9 µM
same,GI50,RPMI-8226 leukemia,15.7 µM
same,TGI,RPMI-8226 leukemia,37 µM
same,GI50,SK-MEL-28 melanoma,28.2 µM
same,TGI,SK-MEL-28 melanoma,93.2 µM
same,GI50,CCRF-CEM leukemia,29.7 µM
same,TGI,CCRF-CEM leukemia,96.7 µM
same,GI50,IGROV1 ovarian,14.4 µM
same,TGI,IGROV1 ovarian,32.9 µM
same,GI50,U251 CNS,18.2 µM
same,TGI,U251 CNS,39.2 µM
same,GI50,SK-OV-3 ovarian,35.8 µM
same,TGI,SK-OV-3 ovarian,> 100 µM
same,GI50,T-47D breast,35.6 µM
same,TGI,T-47D breast,> 100 µM
same,GI50,SF-268 CNS,22.7 µM
same,TGI,SF-268 CNS,59.6 µM
same,GI50,RXF 393 renal,14.6 µM
same,TGI,RXF 393 renal,29.7 µM
same,GI50,HOP-92 NSCLC,17.8 µM
same,TGI,HOP-92 NSCLC,40.9 µM
same,GI50,OVCAR-3 ovarian,18.8 µM
same,TGI,OVCAR-3 ovarian,32.9 µM
same,GI50,NCI-H460 lung,26.6 µM
same,TGI,NCI-H460 lung,77.7 µM
same,GI50,MALME-3M melanoma,20.2 µM
same,TGI,MALME-3M melanoma,43.5 µM
same,GI50,A498 renal,27.1 µM
same,TGI,A498 renal,76.5 µM
same,GI50,K-562 leukemia,21.3 µM
same,TGI,K-562 leukemia,52.7 µM
same,GI50,OVCAR-5 ovarian,37.6 µM
same,TGI,OVCAR-5 ovarian,> 100 µM
same,GI50,UACC-62 melanoma,15.2 µM
same,TGI,UACC-62 melanoma,54.7 µM
same,GI50,DU-145 prostate,22.6 µM
same,TGI,DU-145 prostate,45.2 µM
same,GI50,HCT-15 colon,32.3 µM
same,TGI,HCT-15 colon,> 100 µM
same,GI50,HS 578T breast,21.8 µM
same,TGI,HS 578T breast,82.8 µM
same,GI50,EKVX NSCLC,83 µM
same,TGI,EKVX NSCLC,> 100 µM
same,GI50,PC-3 prostate,18.8 µM
same,TGI,PC-3 prostate,35.9 µM
same,GI50,A549 NSCLC,16.7 µM
same,TGI,A549 NSCLC,30.6 µM
same,GI50,TK-10 renal,19.4 µM
same,TGI,TK-10 renal,35.7 µM
same,GI50,ACHN renal,20 µM
same,TGI,ACHN renal,42.9 µM
same,GI50,HT29 colon,17.8 µM
same,TGI,HT29 colon,36.2 µM
